Assay [1] relates to RARE-β-galactosidase (F9-RARE-β-galactosidase reporter cell line). In words: Transcription of RARE-β-galactosidase in F9-RARE-β-galactosidase reporter cell line. Format: cell-based. To be noted: Mus musculus; media lacking serum. Here is the method: Cells were treated with different concentrations of retinoids in media lacking serum, harvested and assayed for β-galactosidase activity. […] The β-galactosidase activity in this cell line reflects the activation of the RARs.

Assay [2] relates to psoriatic arthritis. In words: Treatment of patients with psoriatic arthritis. It is filed as in vivo, human. Conditions: oral, 50 mg/square meter per day.
Assay [3] has as its target T1, RAR-α (Mus musculus, UniProt P11416).
T1 construct: expressed in transfected cells; host or cells: COS-1
T1 sequence (P11416 1-462): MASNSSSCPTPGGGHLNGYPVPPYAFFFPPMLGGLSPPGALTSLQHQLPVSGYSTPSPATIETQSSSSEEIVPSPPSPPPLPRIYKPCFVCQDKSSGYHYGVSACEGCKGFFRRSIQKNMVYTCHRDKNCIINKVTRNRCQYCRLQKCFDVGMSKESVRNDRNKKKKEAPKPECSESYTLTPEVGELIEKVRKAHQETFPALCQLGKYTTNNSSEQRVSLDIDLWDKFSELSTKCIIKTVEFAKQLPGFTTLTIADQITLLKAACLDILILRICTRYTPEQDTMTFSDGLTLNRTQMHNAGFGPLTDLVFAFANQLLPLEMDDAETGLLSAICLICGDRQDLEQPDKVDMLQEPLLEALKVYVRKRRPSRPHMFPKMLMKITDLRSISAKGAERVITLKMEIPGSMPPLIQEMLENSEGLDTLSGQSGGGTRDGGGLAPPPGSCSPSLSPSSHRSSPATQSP
In words: Competitive binding of 3H-all-trans-retinoic acid to RAR-α. To be noted: concentration to inhibit 50% binding of 3H-all-trans-retinoic acid (10 nM); mean ± SD, at least 3 replicate experiments.
Method: Retinoids were assayed for their ability to bind members of the family of the retinoic acid receptors, the RARs, as follows:
COS-1 cells were transfected by DEAE-dextran with pSG5 expression vectors containing cDNAs for mouse RARs α, β, or γ or RXRs α, β, or γ. […] Nucleosol or cytosol fractions were prepared as described in Nervi, C., et al (30) and Nervi, C., et al (31) and stored at -70° C. until use. Aliquots of nucleosol or cytosol were incubated in nuclei lysis buffer as described in Nervi, C., et al (30) with tritiated ligands for 4 h at 4° C. […] For competitive binding assays, the incubations were performed with increasing concentrations of unlabeled competing ligand and a fixed concentration of the radioligand (10 nM ^3 H-retinoic acid). In saturation kinetic studies, incubations were performed in the presence of increasing concentrations of the indicated radioligand. For all binding assays, bound was separated from free radioactivity as described in Levin, A. A., et al (29).

Assay [4] concerns advanced head and neck cancer. The assay can be described thus: Treatment of patients with advanced head and neck cancer. Format: in vivo, human. Conditions: oral, 100 mg/square meter per day. From the text:
Current systemic chemotherapy regimens are unable to prolong survival of patients with advanced head and neck cancer.

Assay [5] relates to deep (cystic) acne. In words: Treatment of patients with deep (cystic) acne. To be noted: oral, 100 mg/square meter per day. It is filed as in vivo, human. From the text:
A very prolonged remission, and potentially permanent cure can be obtained.

Assay [6] deals with breast cancer. The assay can be described thus: Treatment of patients with breast cancer. Conditions: oral, 100 mg/square meter per day. Format: in vivo, human.

Molecule `CC1=C(/C=C/C(C)=C/C=C/C(C)=C/CO)C(C)(C)CCC1=O` [4-oxo-retinol, all-trans-4-oxo-retinol] registered an EC50 in assay [1] of 42 nM. Also, in assay [2], the psoriatic arthritis symptoms entry was “fewer tender joints and a decreased duration of morning stiffness”. The molecule also returned an IC50 in assay [3] of 330 ± 54 nM. In addition, the “tumor burden, head and neck cancer” value in assay [4] is listed as “reduced tumor burden”. In addition, the “survival beyond the median” value in assay [4] (and/or reduced tumor burden) is 4-6 months. In addition, the “mean reduction in lesion counts” value in assay [5] (end of 3 to 6 months) is recorded as “greater than 85%”. The acne clearance result in assay [5] (after discontinuation) is listed as “in some cases complete clearance occurs”. Further, the “tumor burden, breast cancer” value in assay [6] is recorded as “reduced tumor burden”.

Source of the values: patent US5962534A, “Regulating gene expression using retinoids with CH2 OH or related groups at the side chain terminal position” (Cornell Research Foundation, Inc., priority 1997, dated 1999).
